# Results from US6914045B2, “Glycopeptide antibiotics” (Wyeth Holdings Corporation, priority 2001, dated 2005).
# Key:
# Assay in all cases: in vitro antibacterial evaluation, MIC by broth dilution
# Type in all cases: cell-based
# Enterococcus sp. = conditions: broth dilution, 18 hours at 35° C.
# Summary of the method: (§1)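 Following National Committee for Clinical Laboratory Standards recommendations (M7-A2), susceptibility was measured by dilution in Muller-Hinton II […]. Bacteria were seeded at 5×10^5 CFU/mL against compound concentrations from 64 down to 0.06 μg/mL.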
# Staphylococcus sp. = conditions: broth dilution, 18 hours at 35° C.; for MIC Staphylococcus aureus (GC 1131): strain GC 1131; for MIC Staphylococcus aureus (ATCC 29213): strain ATCC 29213; for MIC Staphylococcus aureus (GC 4541): strain GC 4541; for MIC Staphylococcus aureus (GC 4542): strain GC 4542; for MIC Staphylococcus aureus (GC 4544): strain GC 4544; for MIC Staphylococcus aureus (GC 4545): strain GC 4545
# Summary of the method: as §1
# Streptococcus sp. = conditions: broth dilution, 18 hours at 35° C.
# Summary of the method: as §1
# Escherichia coli = conditions: 18 hours at 35° C.
compound,measurement,setting,value
CC(c1ccccc1)C1NC(=O)CNC(=O)C(CO)NC(=O)C(C(O)C2CNC(=N)N2C2OC(CO)C(O)C(O)C2O)NC(=O)C(C(O)C2CNC(=N)N2)NC(=O)C(Cc2ccc(OC3OC(CO)C(OC4OC5COC(c6ccc(C(=O)c7ccc(I)cc7)cc6)OC5C(O)C4O)C(O)C3O)cc2)NC1=O (centres unmarked) [Example 186],MIC Enterococcus avium (GC 4558),Enterococcus sp.,2 µg/mL
same,MIC Enterococcus faecalis (ATCC 29212),Enterococcus sp.,2 µg/mL
same,MIC Enterococcus faecalis (GC 2242),Enterococcus sp.,2 µg/mL
same,MIC Enterococcus faecalis (GC 2691),Enterococcus sp.,2 µg/mL
same,MIC Enterococcus faecalis (GC 3059),Enterococcus sp.,2 µg/mL
same,MIC Enterococcus faecalis (GC 4552),Enterococcus sp.,2 µg/mL
same,MIC Enterococcus faecalis (GC 4553),Enterococcus sp.,2 µg/mL
same,MIC Enterococcus faecalis (GC 4554),Enterococcus sp.,2 µg/mL
same,MIC Enterococcus faecalis (GC 6189),Enterococcus sp.,1 µg/mL
same,MIC Enterococcus faecium (GC 2243),Enterococcus sp.,2 µg/mL
same,MIC Enterococcus faecium (GC 4556),Enterococcus sp.,2 µg/mL
same,MIC Enterococcus faecium (GC 4557),Enterococcus sp.,2 µg/mL
same,MIC Enterococcus faecalis (ATCC 29212),"Enterococcus sp.; inoculum 5×10^5 CFU/mL, strain ATCC 29212",2 µg/mL
same,MIC Enterococcus faecalis (GC 2242),"Enterococcus sp.; inoculum 5×10^5 CFU/mL, strain GC 2242",2 µg/mL
same,MIC Enterococcus faecium (GC 2243),"Enterococcus sp.; inoculum 5×10^5 CFU/mL, strain GC 2243",2 µg/mL
same,MIC Enterococcus faecalis (GC 2691),"Enterococcus sp.; inoculum 5×10^5 CFU/mL, strain GC 2691",2 µg/mL
same,MIC Enterococcus faecalis (GC 3059),"Enterococcus sp.; inoculum 5×10^5 CFU/mL, strain GC 3059",2 µg/mL
same,MIC Enterococcus faecalis (GC 4552),"Enterococcus sp.; inoculum 5×10^5 CFU/mL, strain GC 4552",2 µg/mL
same,MIC Enterococcus faecalis (GC 4553),"Enterococcus sp.; inoculum 5×10^5 CFU/mL, strain GC 4553",2 µg/mL
same,MIC Enterococcus faecalis (GC 4554),"Enterococcus sp.; inoculum 5×10^5 CFU/mL, strain GC 4554",2 µg/mL
same,MIC Enterococcus faecium (GC 4556),"Enterococcus sp.; inoculum 5×10^5 CFU/mL, strain GC 4556",2 µg/mL
same,MIC Enterococcus faecium (GC 4557),"Enterococcus sp.; inoculum 5×10^5 CFU/mL, strain GC 4557",2 µg/mL
same,MIC Enterococcus avium (GC 4558),"Enterococcus sp.; inoculum 5×10^5 CFU/mL, strain GC 4558",2 µg/mL
same,MIC Enterococcus faecalis (GC 6189),"Enterococcus sp.; inoculum 5×10^5 CFU/mL, strain GC 6189",1 µg/mL
same,MIC Staphylococcus aureus (GC 1131),Staphylococcus sp.; inoculum 5×10^5 CFU/mL,2 µg/mL
same,MIC Staphylococcus aureus (ATCC 29213),Staphylococcus sp.,2 µg/mL
same,MIC Staphylococcus aureus (GC 1131),Staphylococcus sp.,2 µg/mL
same,MIC Staphylococcus aureus (GC 3051),Staphylococcus sp.; strain GC 3051,2 µg/mL
same,MIC Staphylococcus aureus (GC 3053),Staphylococcus sp.; strain GC 3053,2 µg/mL
same,MIC Staphylococcus aureus (GC 4541),Staphylococcus sp.,2 µg/mL
same,MIC Staphylococcus aureus (GC 4542),Staphylococcus sp.,1 µg/mL
same,MIC Staphylococcus aureus-SMITH (GC 4543),Staphylococcus sp.; strain GC 4543,2 µg/mL
same,MIC Staphylococcus aureus (GC 4544),Staphylococcus sp.,2 µg/mL
same,MIC Staphylococcus aureus (GC 4545),Staphylococcus sp.,2 µg/mL
same,MIC Staphylococcus haemolyticus (GC 4546),Staphylococcus sp.; strain GC 4546,1 µg/mL
same,MIC Coagulase Negative Staphylococcus (GC 4547),Staphylococcus sp.; strain GC 4547,2 µg/mL
same,MIC Coagulase Negative Staphylococcus (GC 4548),Staphylococcus sp.; strain GC 4548,1 µg/mL
same,MIC Coagulase Negative Staphylococcus (GC 4549),Staphylococcus sp.; strain GC 4549,1 µg/mL
same,MIC Coagulase Negative Staphylococcus (GC 4551),Staphylococcus sp.; strain GC 4551,2 µg/mL
same,MIC Coagulase Negative Staphylococcus (GC 6257),Staphylococcus sp.; strain GC 6257,0.5 µg/mL
same,MIC Streptococcus agalactiae (GC 4564),Streptococcus sp.,<0.06 µg/mL
same,MIC Streptococcus pneumoniae (ATCC 6301),Streptococcus sp.,<0.06 µg/mL
same,MIC Streptococcus pneumoniae (GC 1894),Streptococcus sp.,<0.06 µg/mL
same,MIC Streptococcus pneumoniae (GC 4565),Streptococcus sp.,<0.06 µg/mL
same,MIC Streptococcus pyogenes (GC 4563),Streptococcus sp.,0.25 µg/mL
same,MIC Streptococcus pneumoniae (ATCC 6301),"Streptococcus sp.; inoculum 5×10^5 CFU/mL, strain ATCC 6301",<0.06 µg/mL
same,MIC Streptococcus pneumoniae (GC 1894),"Streptococcus sp.; inoculum 5×10^5 CFU/mL, strain GC 1894",<0.06 µg/mL
same,MIC Streptococcus pyogenes (GC 4563),"Streptococcus sp.; inoculum 5×10^5 CFU/mL, strain GC 4563",0.25 µg/mL
same,MIC Streptococcus agalactiae (GC 4564),"Streptococcus sp.; inoculum 5×10^5 CFU/mL, strain GC 4564",<0.06 µg/mL
same,MIC Streptococcus pneumoniae (GC 4565),"Streptococcus sp.; inoculum 5×10^5 CFU/mL, strain GC 4565",<0.06 µg/mL
same,MIC Escherichia coli (ATCC 25922),Escherichia coli,64 µg/mL
same,MIC Escherichia coli (GC 4559),Escherichia coli,64 µg/mL
same,MIC Escherichia coli (GC 4560),Escherichia coli,4 µg/mL
"CC(c1ccccc1)C1NC(=O)CNC(=O)C(CO)NC(=O)C(C(O)C2CNC(=N)N2C2OC(COC(=O)C(c3ccccc3)c3ccccc3)C(O)C(O)C2O)NC(=O)C(C(O)C2CNC(=N)N2)NC(=O)C(Cc2ccc(OC3OC(CO)C(OC4OC(CO)C(O)C(O)C4O)C(O)C3O)cc2)NC1=O (stereo not drawn) [Example 96, Cyclo[glycyl-β-methylphenylalanyl-O-(4-O-hexopyranosylhexoipyranosyl)tyrosyl-3-(2-iminoimidazolidin-4-yl)seryl-3-[3-[6-O-(diphenylacetyl)hexopyranosyl]-2-iminoimidazolidin-4-yl]-serylseryl]]",MIC Enterococcus avium (GC 4558),Enterococcus sp.; Enterococcus avium (GC 4558),>128 µg/mL
same,MIC Enterococcus faecalis (ATCC 29212),Enterococcus sp.; Enterococcus faecalis (ATCC 29212),>128 µg/mL
same,MIC Enterococcus faecalis (GC 4552),Enterococcus sp.; Enterococcus faecalis (GC 4552),>128 µg/mL
same,MIC Enterococcus faecalis (GC 4553),Enterococcus sp.; Enterococcus faecalis (GC 4553),>128 µg/mL
same,MIC Enterococcus faecalis (GC 4554),Enterococcus sp.; Enterococcus faecalis (GC 4554),>128 µg/mL
same,MIC Enterococcus faecium (GC 2243),Enterococcus sp.; Enterococcus faecium (GC 2243),>128 µg/mL
same,MIC Enterococcus faecium (GC 4556),Enterococcus sp.; Enterococcus faecium (GC 4556),>128 µg/mL
same,MIC Enterococcus faecium (GC 4557),Enterococcus sp.; Enterococcus faecium (GC 4557),128 µg/mL
same,MIC Enterococcus avium (GC 4558),Enterococcus sp.,>128 µg/mL
same,MIC Enterococcus faecalis (ATCC 29212),Enterococcus sp.,>128 µg/mL
same,MIC Enterococcus faecalis (GC 2242),Enterococcus sp.,>128 µg/mL
same,MIC Enterococcus faecalis (GC 4552),Enterococcus sp.,>128 µg/mL
same,MIC Enterococcus faecalis (GC 4553),Enterococcus sp.,>128 µg/mL
same,MIC Enterococcus faecalis (GC 4554),Enterococcus sp.,>128 µg/mL
same,MIC Enterococcus faecium (GC 2243),Enterococcus sp.,>128 µg/mL
same,MIC Enterococcus faecium (GC 4556),Enterococcus sp.,>128 µg/mL
same,MIC Enterococcus faecium (GC 4557),Enterococcus sp.,128 µg/mL
same,MIC Enterococcus faecalis (GC 2242),Enterococcus sp.; strain GC 2242,>128 µg/mL
same,MIC Coagulase Negative Staphylococcus (GC 4547),Staphylococcus sp.,>128 µg/mL
same,MIC Coagulase Negative Staphylococcus (GC 4548),Staphylococcus sp.,>128 µg/mL
same,MIC Coagulase Negative Staphylococcus (GC 4549),Staphylococcus sp.,>128 µg/mL
same,MIC Coagulase Negative Staphylococcus (GC 4551),Staphylococcus sp.,>128 µg/mL
same,MIC Coagulase Negative Staphylococcus (ID-3941),Staphylococcus sp.,128 µg/mL
same,MIC Staphylococcus aureus-SMITH (GC 4543),Staphylococcus sp.,>128 µg/mL
same,MIC Staphylococcus haemolyticus (GC 4546),Staphylococcus sp.,>128 µg/mL
same,MIC Staphylococcus aureus (ATCC 29213),Staphylococcus sp.,>128 µg/mL
same,MIC Staphylococcus aureus (GC 1131),Staphylococcus sp.,>128 µg/mL
same,MIC Staphylococcus aureus (GC 4541),Staphylococcus sp.,>128 µg/mL
same,MIC Staphylococcus aureus (GC 4542),Staphylococcus sp.,>128 µg/mL
same,MIC Staphylococcus aureus-SMITH (GC 4543),Staphylococcus sp.; strain GC 4543,>128 µg/mL
same,MIC Staphylococcus aureus (GC 4544),Staphylococcus sp.,>128 µg/mL
same,MIC Staphylococcus aureus (GC 4545),Staphylococcus sp.,>128 µg/mL
same,MIC Staphylococcus haemolyticus (GC 4546),Staphylococcus sp.; strain GC 4546,>128 µg/mL
same,MIC Coagulase Negative Staphylococcus (GC 4547),Staphylococcus sp.; strain GC 4547,>128 µg/mL
same,MIC Coagulase Negative Staphylococcus (GC 4548),Staphylococcus sp.; strain GC 4548,>128 µg/mL
same,MIC Coagulase Negative Staphylococcus (GC 4549),Staphylococcus sp.; strain GC 4549,>128 µg/mL
same,MIC Coagulase Negative Staphylococcus (GC 4551),Staphylococcus sp.; strain GC 4551,>128 µg/mL
same,MIC Coagulase Negative Staphylococcus (ID-3941),Staphylococcus sp.; strain ID-3941,128 µg/mL
same,MIC Streptococcus agalactiae (GC 4564),Streptococcus sp.,>128 µg/mL
same,MIC Streptococcus pneumoniae (GC 4565),Streptococcus sp.,>128 µg/mL
same,MIC Streptococcus pyogenes (ID-3187),Streptococcus sp.,>128 µg/mL
same,MIC Streptococcus agalactiae (GC 4564),Streptococcus sp.; strain GC 4564,>128 µg/mL
same,MIC Streptococcus pneumoniae (GC 4565),Streptococcus sp.; strain GC 4565,>128 µg/mL
same,MIC Streptococcus pyogenes (ID-3187),Streptococcus sp.; strain ID-3187,>128 µg/mL
same,MIC Escherichia coli (ATCC 25922),Escherichia coli,>128 µg/mL
